Each structure is given as a SMILES string.

In patent publication US6362188B1, “Farnesyl protein transferase inhibitors” (Schering Corporation, priority 1998, dated 2002) one finds IC50 data, which are given here for 49 compounds.

The test deals with Human tumor cells. As to the kind of experiment: Soft Agar Assay (anchorage-independent growth). It is filed as cell-based. To be noted: colony outgrowth in soft agar, stated as a range for the group. As to the method: Anchorage-independent growth is a characteristic of tumorigenic cell lines. Human tumor cells can be suspended in growth medium containing 0.3% agarose and an indicated concentration of a farnesyl transferase inhibitor. The solution can be overlayed onto growth medium solidified with 0.6% agarose containing the same concentration of farnesyl transferase inhibitor as the top layer. After the top layer is solidified, plates can be incubated for 10-16 days at 37° C. under 5% CO2 to allow colony outgrowth. After incubation, the colonies can be stained by overlaying the agar with a solution of MTT (3-[4,5-dimethyl-thiazol-2-yl]-2,5-diphenyltetrazolium bromide, Thiazolyl blue) (1 mg/mL in PBS). Colonies can be counted and the IC50's can be determined.
In the case of `Cc1cn(C[C@@]2(C)CCCN(C(=O)[C@H]3CN([C@H]4c5ccc(Cl)cc5CCc5cccnc54)CCN3C(=O)OC3CCCCC3)C2)cn1` [Example 416], the IC50 (commonly the midpoint of a concentration-inhibition curve) lay within 0.05 to 30 nM.

The compound `Cc1cn(CCC2CCCN2C(=O)C2CN(C3c4ccc(Cl)cc4CCc4cccnc43)CCN2C(=O)OC2CCCCC2)cn1` (single isomer, unassigned) [47(S)] displayed a half-inhibitory concentration (IC50) of 0.05 to 30 nM.

Consider `Cc1cn(C[C@@H]2CCCN(C(=O)[C@H]3CN([C@H]4c5ccc(Cl)cc5CCc5cc(Cl)cnc54)CCN3C(=O)OCC(C)(C)C)C2)cn1` [Example 234], for which the 50% inhibitory concentration (IC50) is 0.05 to 30 nM.

In turn, `CC(C)(C)OC(=O)N1CCN(C2c3ccc(Cl)cc3CCc3cc(Br)cnc32)CC1C(=O)N1CCCCC1CCCn1ccnc1` (single isomer, unassigned) [Example 145] displayed a half-maximal inhibitory concentration (IC50) of 0.5 to 30 nM.

Compound `Cc1cn(C[C@@H]2CCCN(C(=O)[C@H]3CN([C@@H]4c5ccc(Cl)cc5CCc5cc(Cl)cnc54)CCN3C(=O)OC(C)C)C2)cn1` [Example 231] came in with an IC50 of 0.05 to 30 nM.

The compound `Cc1cn(CC2CCCN(C(=O)C3CN(C4c5ccc(Cl)cc5CCc5cc(Br)cnc54)CCN3C(=O)C(C)(C)C)C2)cn1` (stereo not shown) [Example 180] showed an IC50 of 0.05 to 30 nM.

`Cc1cn(C[C@H]2CCCN(C(=O)[C@H]3CN([C@@H]4c5ccc(Cl)cc5CCc5cc(Br)cnc54)CCN3C(=O)OC3CCCCC3)C2)cn1` [Example 185]: the IC50 lay within 0.05 to 30 nM.

With `Cc1nc(C)n(CC2CCCN(C(=O)C3CN(C4c5ccc(Cl)cc5CCc5cccnc54)CCN3C(=O)OC3CCCCC3)C2)c1C` (single isomer, unassigned) [47(P)], the concentration for half-maximal inhibition (IC50) is 0.05 to 30 nM.

Consider `Cc1cncn1C[C@H]1CN(C(=O)[C@H]2CN([C@H]3c4ccc(Cl)cc4CCc4cc(Br)cnc43)CCN2C(=O)OC(C)(C)C)CCS1(=O)=O` [Example 154], for which the IC50 is 0.05 to 30 nM.

For `Cc1cn(C[C@@H]2CCCN(C(=O)[C@H]3CN([C@@H]4c5ccc(Cl)cc5CCc5cc(Br)cnc54)CCN3C(=O)OCC(C)(C)C)C2)cn1` [Example 173], the IC50 was 0.05 to 30 nM.

In turn, `Cc1cn(C[C@H]2CCCN(C(=O)[C@H]3CN([C@@H]4c5ccc(Cl)cc5CCc5cc(Br)cnc54)CCN3C(=O)OC(C)C)C2)cn1` [Example 183] registered an IC50 of 0.05 to 30 nM.

For `Cc1cn(C[C@]2(C)CCCN(C(=O)[C@H]3CN([C@H]4c5ccc(Cl)cc5CCc5cccnc54)CCN3C(=O)OC3CCCCC3)C2)cn1` [Example 417], the IC50 was in the range of 0.05 to 30 nM.

In the case of `Cc1cn(C[C@@H]2CCCN(C(=O)[C@H]3CN([C@H]4c5ccc(Cl)cc5CCc5cc(Br)cnc54)CCN3C(=O)OCC(C)(C)C)C2)cn1` [Example 174], the half-inhibitory concentration (IC50) was in the range of 0.05 to 30 nM.

Compound `CC1CCC(Cn2ccnc2)CN1C(=O)[C@H]1CN([C@H]2c3ccc(Cl)cc3CCc3cccnc32)CCN1C(=O)OC1CCCCC1` (stereo partly shown) [Example 424] returned an IC50 of 0.05 to 30 nM.

Consider `Cc1cn(CC2(O)CCCN(C(=O)[C@H]3CN([C@H]4c5ccc(Cl)cc5CCc5cccnc54)CCN3C(=O)OCc3ccccc3)C2)cn1` (single isomer, unassigned) [Example 422], for which the IC50 was in the range of 0.05 to 30 nM.

The compound `Cc1cn(C[C@]2(O)CCCN(C(=O)[C@H]3CN([C@H]4c5ccc(Cl)cc5CCc5cccnc54)CCN3C(=O)OC3CCCCC3)C2)cn1` (stereo in doubt) [Example 419] showed an IC50 of 0.05 to 30 nM.

On to `Cc1cn(C[C@@H]2CCCN(C(=O)[C@H]3CN([C@H]4c5ccc(Cl)cc5CCc5cc(Cl)cnc54)CCN3C(=O)OC(C)C)C2)cn1` [Example 232], for which the IC50 is 0.05 to 30 nM.

The compound `Cc1cn(C[C@@H]2CCCN(C(=O)[C@H]3CN([C@H]4c5ccc(Cl)cc5CCc5cc(Br)cnc54)CCN3C(=O)OC(C)C)C2)cn1` [Example 170] gave an IC50 of 0.05 to 30 nM.

Take `Cc1cn(C[C@H]2CCCN(C(=O)[C@H]3CN([C@H]4c5ccccc5CCc5cc(Cl)cnc54)CCN3C(=O)C(C)(C)C)C2)cn1` [Example 316]: the 50% inhibitory concentration (IC50) is 0.05 to 30 nM.

As to `Cc1nccn1CC1CCCN(C(=O)C2CN(C3c4ccc(Cl)cc4CCc4cccnc43)CCN2C(=O)NC(C)(C)C)C1` (stereo not shown) [Example 49], the IC50 fell in the range of 0.5 to 30 nM.

As to `Cc1cn(CC[C@@H]2CCCN2C(=O)[C@H]2CN(C3c4ccc(Cl)cc4CCc4cc(Br)cnc43)CCN2C(=O)OC2CCCCC2)cn1` (stereo partly shown) [Example 216], the half-inhibitory concentration (IC50) was in the range of 0.05 to 30 nM.

`Cc1cn(C[C@@H]2CCCN(C(=O)[C@H]3CN([C@@H]4c5ccccc5CCc5cc(Cl)cnc54)CCN3C(=O)OCC3CC3)C2)cn1` [Example 299] had an IC50 of 0.05 to 30 nM.

With `Cc1nc(C)n(CC2CCCN(C(=O)C3CN(C4c5ccc(Cl)cc5CCc5cc(Br)cnc54)CCN3C(=O)OC(C)(C)C)C2)c1C` (stereo not shown) [Example 158], the IC50 was 0.05 to 30 nM.

For the compound `Cc1cn(C[C@H]2CN(C(=O)[C@H]3CN([C@H]4c5ccc(Cl)cc5CCc5cc(Br)cnc54)CCN3C(=O)OC3CCCCC3)CCS2(=O)=O)cn1` [Example 211], the IC50 lay within 0.05 to 30 nM.

Compound `Cc1cn(C[C@@H]2CCCN(C(=O)[C@H]3CN([C@@H]4c5ccc(Cl)cc5CCc5cc(Br)cnc54)CCN3C(=O)OC3CCCCC3)C2)cn1` [Example 171] had an IC50 of 0.05 to 30 nM.

The compound `Cc1nccn1C[C@@H]1CCCN(C(=O)[C@H]2CN([C@H]3c4ccc(Cl)cc4CCc4cccnc43)CCN2C(=O)OC(C)(C)C)C1` [Example 30] came in with a half-inhibitory concentration (IC50) of 0.5 to 30 nM.

In the case of `Cc1cn(C[C@@H]2CCCN(C(=O)[C@H]3CN([C@H]4c5ccc(Cl)cc5CCc5cc(Br)cnc54)CCN3C(=O)OC3CCCCC3)C2)cn1` [Example 172], the IC50 lay in the range of 0.05 to 30 nM.

Compound `Cc1cn(CC2CCCCN(C(=O)C3CN(C4c5ccc(Cl)cc5CCc5cccnc54)CCN3C(=O)OC3CCCCC3)C2)cn1` (single isomer, unassigned) [Example 409] yielded an IC50 of 0.05 to 30 nM.

Regarding `Cc1cn(CC2CCCN(C(=O)C3CN(C4c5ccc(Cl)cc5CCc5cc(Cl)cnc54)CCN3C(=O)OCC(C)(C)C)C2)cn1` (stereo not shown) [Example 233], the half-maximal inhibitory concentration (IC50) was 0.05 to 30 nM.

As to `Cc1cn(C[C@H]2CCCN(C(=O)[C@H]3CN([C@@H]4c5ccccc5CCc5cc(Cl)cnc54)CCN3C(=O)NC3CCCCC3)C2)cn1` [Example 317], the IC50 was in the range of 0.05 to 30 nM.

As for `Cc1nccn1CC1CCCN(C(=O)C2CN(C3c4ncccc4CCc4cccc(Cl)c43)CCN2C(=O)OC(C)(C)C)C1` (single isomer, unassigned) [Example 396], the IC50 is 0.05 to 30 nM.

With `Cc1nccn1CC1CN(C(=O)C2CN(C3c4ccc(Cl)cc4CCc4cc(Br)cnc43)CCN2C(=O)OC(C)(C)C)CCS1(=O)=O` (stereo not shown) [Example 151], the IC50 was in the range of 0.05 to 30 nM.

Regarding `Cc1[nH]cnc1CC1CN(C(=O)C2CN(C3c4ccc(Cl)cc4CCc4cc(Br)cnc43)CCN2C(=O)OC2CCCCC2)CCS1(=O)=O` (single isomer, unassigned) [Example 212], the 50% inhibitory concentration (IC50) is 0.05 to 30 nM.

Take `Cc1cn(C[C@@H]2CN(C(=O)[C@H]3CN([C@H]4c5ccc(Cl)cc5CCc5cc(Br)cnc54)CCN3C(=O)OC3CCCCC3)CCS2(=O)=O)cn1` [Example 210]: the half-maximal inhibitory concentration (IC50) was 0.05 to 30 nM.

In turn, `Cc1cn(CC2CCCN(C(=O)C3CN(C4c5ccccc5CCc5cc(Cl)cnc54)CCN3C(=O)OCC3CC3)C2)cn1` (stereo not shown) [Example 300] yielded an IC50 of 0.05 to 30 nM.

With `Cc1nccn1CC1CN(C(=O)C2CN(C3c4ccc(Cl)cc4CCc4cccnc43)CCN2C(=O)OC(C)(C)C)CCS1(=O)=O` (stereo not shown) [35(E)], the IC50 lay in the range of 0.05 to 30 nM.

Compound `Cc1cn(C[C@@H]2CCCN(C(=O)[C@H]3CN([C@H]4c5ccc(Cl)cc5CCc5cc(Cl)cnc54)CCN3C(=O)NC(C)(C)C)C2)cn1` [Example 238] had a half-inhibitory concentration (IC50) of 0.05 to 30 nM.

On to `Cc1cn(C[C@H]2CCCN(C(=O)[C@H]3CN([C@H]4c5ccccc5CCc5cc(Cl)cnc54)CCN3C(=O)NC3CCCCC3)C2)cn1` [Example 318], for which the 50% inhibitory concentration (IC50) fell in the range of 0.05 to 30 nM.

With `Cc1cn(C[C@@H]2CCCN(C(=O)[C@H]3CN([C@H]4c5ccc(Cl)cc5CCc5cc(Br)cnc54)CCN3C(=O)C3(C)CC3)C2)cn1` [Example 201], the 50% inhibitory concentration (IC50) fell in the range of 0.05 to 30 nM.

The compound `Cc1[nH]cnc1CC1CN(C(=O)C2CN(C3c4ccc(Cl)cc4CCc4cc(Br)cnc43)CCN2C(=O)OC(C)(C)C)CCS1(=O)=O` (single isomer, unassigned) [Example 156] yielded an IC50 of 0.05 to 30 nM.

The compound `Cc1cn(C[C@H]2CCCN(C(=O)[C@H]3CN([C@H]4c5ccc(Cl)cc5CCc5cc(Br)cnc54)CCN3C(=O)OC3CCCCC3)C2)cn1` [Example 186] gave an IC50 of 0.05 to 30 nM.

The compound `Cc1cn(C[C@@H]2CCCN(C(=O)[C@H]3CN([C@@H]4c5ccccc5CCc5cc(Cl)cnc54)CCN3C(=O)NC(C)(C)C)C2)cn1` [Example 301] came in with a half-inhibitory concentration (IC50) of 0.05 to 30 nM.

In turn, `Cc1cn(C[C@@H]2CCCN(C(=O)[C@H]3CN([C@@H]4c5ccc(Cl)cc5CCc5cc(Br)cnc54)CCN3C(=O)C(C)(C)C)C2)cn1` [Example 179] came in with an IC50 of 0.05 to 30 nM.

`Cc1cn(CC2CCCN(C(=O)C3CN(C4c5ccc(Cl)cc5CCc5cccnc54)CCN3C(=O)NC(C)(C)C)C2)cn1` (stereo not shown) [Example 50] yielded an IC50 of 0.5 to 30 nM.

As to `Cc1cn(C[C@@H]2CCCN(C(=O)[C@H]3CN([C@H]4c5ccc(Cl)cc5CCc5cccnc54)CCN3C(=O)OC(C)(C)C)C2)cn1` [Example 32], the IC50 fell in the range of 0.5 to 30 nM.

Regarding `Cc1cn(CC2CCCN(C(=O)C3CN(C4c5ccc(Cl)cc5CCc5cc(Br)cnc54)CCN3C(=O)OCC(C)(C)C)C2)cn1` (stereo not shown) [Example 188], the IC50 fell in the range of 0.05 to 30 nM.

On to `Cc1cn(C[C@H]2CCCN(C(=O)[C@H]3CN([C@H]4c5ccc(Cl)cc5CCc5cc(Br)cnc54)CCN3C(=O)NC(C)(C)C)C2)cn1` [Example 192], for which the 50% inhibitory concentration (IC50) fell in the range of 0.05 to 30 nM.

Regarding `Cc1cn(CC[C@H]2CCCN2C(=O)[C@H]2CN(C3c4ccc(Cl)cc4CCc4cc(Br)cnc43)CCN2C(=O)OC2CCCCC2)cn1` (stereo partly shown) [Example 215], the IC50 is 0.05 to 30 nM.

Consider `CC(C)(C)OC(=O)N1CCN([C@H]2c3ccc(Cl)cc3CCc3cc(Br)cnc32)C[C@@H]1C(=O)N1CCCCC1CCn1ccnc1` (stereo partly drawn) [Example 138, 1,1-dimethylethyl 4-(3-bromo-8-chloro-6,11-dihydro-5H-benzo[5,6]cyclohepta[1,2-b]pyridin-11(S)-yl)-2(R)-[[2-[2-(1H-imidazol-1-yl)ethyl]-1-piperidinyl]carbonyl]-1-piperazinecarboxylate], for which the IC50 is 0.5 to 30 nM.
